# Measurements from patent US7915291B2, “Hepatitis C virus inhibitors” (Bristol-Myers Squibb Company, priority 2002, dated 2011).
# Target: T1, HCV NS3/4A protease complex, J4L6S strain (Hepatitis C virus genotype 1b, UniProt O92972, C1454S/C1711G)
# T1 construct: recombinant HCV NS3/4A protease complex (amino acids 1027 to 1711); inferred from pET21b vector and Ni-NTA purification; made in house; host or cells: Escherichia coli BL21 (DE3), pET21b
# Experiment: Recombinant HCV NS3/4A protease complex FRET peptide assay (J4L6S strain)
# Format: biochemical, HCV genotype 1b
# Source text: Recombinant HCV NS3/4A Protease Complex FRET Peptide Assay
# The purpose of this in vitro assay was to measure the inhibition of HCV NS3 protease complexes, derived from the BMS, H77C or J416S strains, as described below, by compounds of the present invention. This assay provides an indication of how effective compounds of the present invention would be in inhibiting HCV proteolytic activity.
# Serum from an HCV-infected patient was obtained from Dr. T. Wright, San Francisco Hospital. An engineered full-length cDNA (compliment deoxyribonucleic acid) template of the HCV genome (BMS strain) was constructed from DNA fragments obtained by reverse transcription-PCR(RT-PCR) of serum RNA (ribonucleic acid) and using primers selected on the basis of homology between other genotype 1a strains. From the determination of the entire genome sequence, a genotype 1a was assigned to the HCV isolate according to the classification of Simmonds et al. (See P Simmonds, Kans. Rose, S Graham, S W Chan, F McOmish, B C Dow, E A Follett, P L Yap and H Marsden, J. Clin. Microbiol., 31(6), 1493-1503 (1993)). […]
# T1 sequence (O92972 1027-1711 C1454S/C1711G, one chain of several): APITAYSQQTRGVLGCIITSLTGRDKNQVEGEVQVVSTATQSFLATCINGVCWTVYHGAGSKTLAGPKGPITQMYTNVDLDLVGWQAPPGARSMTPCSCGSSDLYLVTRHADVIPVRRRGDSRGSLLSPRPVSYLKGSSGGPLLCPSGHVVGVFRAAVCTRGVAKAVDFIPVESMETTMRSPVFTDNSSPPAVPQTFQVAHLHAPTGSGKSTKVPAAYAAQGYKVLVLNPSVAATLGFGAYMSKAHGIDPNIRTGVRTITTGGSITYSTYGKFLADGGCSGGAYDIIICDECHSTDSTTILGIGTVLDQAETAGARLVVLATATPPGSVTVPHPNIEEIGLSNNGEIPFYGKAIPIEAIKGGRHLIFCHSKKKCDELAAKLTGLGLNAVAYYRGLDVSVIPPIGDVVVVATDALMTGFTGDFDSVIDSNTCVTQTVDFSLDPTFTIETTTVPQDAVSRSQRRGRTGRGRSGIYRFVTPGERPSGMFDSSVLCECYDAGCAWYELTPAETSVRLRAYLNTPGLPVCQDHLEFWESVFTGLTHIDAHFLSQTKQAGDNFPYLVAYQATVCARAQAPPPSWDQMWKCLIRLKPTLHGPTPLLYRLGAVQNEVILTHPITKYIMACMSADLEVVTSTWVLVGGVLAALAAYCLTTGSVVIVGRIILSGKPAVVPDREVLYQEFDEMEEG
smiles,measurement,value
C=C[C@@H]1C[C@]1(NC(=O)[C@@H]1C[C@@H](Oc2nc(C3CC3)cc3ccccc23)CN1C(=O)[C@@H](NC(=O)OC(C)(C)C)C(C)(C)C)C(=O)NS(=O)(=O)C1CC1 [Compound 34],IC50,2.9 nM
